The values that follow come from patent US7951548B2, “IL-13 production inhibitor” (Takeda Pharmaceutical Company Limited, priority 2005, dated 2011).

Assay [1] deals with T1, GPR34 (Homo sapiens, UniProt Q9UPC5).
T1 construct: expressed in transfected cells
The experiment in a line: Intracellular cAMP production inhibitory activity on GPR34-expressed CHO cells (forskolin stimulated). Conditions: phosphatidylserine in a higher concentration. It is filed as cell-based. The procedure:
The GPR34-expressed CHO cells prepared in (1-2) described above and selected in (1-3) described above were plated on a 24-well plate in 6×10^4 cells/well followed by incubation for 48 hours. The cells were washed with αMEM medium (pH 7.5) containing 0.2 mM 3-isobutylmethylxanthine, 0.05% BSA and 20 mM HEPES (hereinafter αMEM medium (pH 7.5) containing 0.2 mM 3-isobutylmethylxanthine, 0.05% BSA and 20 mM HEPES is referred to as the reaction buffer). Thereafter, 0.5 mL of the reaction buffer was added and the mixture was kept warm for 30 minutes in an incubator. The reaction buffer was removed and 0.25 mL of fresh reaction buffer was replenished to the cells. Then, 0.25 mL of the reaction buffer containing a sample and 2 μM forskolin was added to the cells, followed by reacting at 37° C. for 30 minutes. The reaction solution was removed and 0.5 mL of the cell lysis solution attached to cAMP EIA kit (Applied Biosystems) to extract cAMP in the cells. The cAMP level in the extract was quantified using the same kit. Based on this measurement data, the cAMP production inhibitory activity was calculated based on the equation shown below and expressed in terms of percentage to the control group. […]
Background: cAMP levels reflect the balance of adenylyl cyclase and phosphodiesterase activity.

In assay [2] the target is T1, GPR34. Briefly: MAPK activation: phosphorylation of ERK1/2 in human GPR34-expressed CHO cells (western blotting). Conditions: human GPR34-expressed CHO cells. It counts as cell-based. The procedure:
The cells were prepared as described below. Human GPR34-expressed CHO cells were scraped off with 0.05% trypsin-EDTA (GIBCO) and suspended in a medium (MEM-α (GIBCO), supplemented with 10% FBS (GIBCO) and penicillin/streptomycin (BIOWHITTAKER)). After centrifugation, the cells precipitated were suspended in the medium in 2×10^5 cells/ml and a 1 mL aliquot was plated on a 35 mm cell culture dish. After incubation overnight in a CO2 incubator, the medium was aspirated and washed in PBS. Then 1 mL of serum-free medium (MEM-α (GIBCO), supplemented with penicillin/streptomycin (BIOWHITTAKER)) and incubation was performed in a CO2 incubator. Pertussis toxin (hereinafter PTX) was added in a final concentration of 0.1 μg/mL 20 hours before the assay.
The cells were activated as follows. The medium was aspirated and washed in PBS. Thereafter, 500 μL of assay buffer (HBSS (GIBCO), 10 mM HEPES (Dojin Chemical Laboratory)) was added to perform preincubation for 15 minutes at 37° C. The lysoPS solution and […] of PECGF ([…] cell growth factor) solution as a positive control were added. After the mixture was incubated at 37° C., the reaction was terminated by quenching. The assay buffer was aspirated and washed in PBS. Then, 1×SDS sample buffer/DTT was added to the cells to recover the cells. After ultrasonication for 15 seconds, heating at 95° C. for 5 minutes was followed by quenching.
Detection by SDS-PAGE and western blotting were performed as follows. After separation using 10% Bis-Tris gel (Invitrogen), the gel was transferred to Immuno-Blot PVDF Membrane (Bio-Rad). The membrane was blocked with Block Ace (Dai-Nippon Pharmaceutical) and incubated at room temperature for an hour with a primary antibody (Phospho-p42/p44 MAP Kinase (Thr202/Thr204) Antibody (CST) or p42/p44 MAP Kinase Antibody (CST)) and further incubated at room temperature for an hour using a secondary antibody (Anti-rabbit IgG (CST)). The membrane after the antibody reaction was visualized by chemiluminescence using ECL PLUS (Amersham Biosciences). […]
(In western blotting, separated proteins are transferred to a membrane and probed.)

T1 sequence (Q9UPC5 whole entry): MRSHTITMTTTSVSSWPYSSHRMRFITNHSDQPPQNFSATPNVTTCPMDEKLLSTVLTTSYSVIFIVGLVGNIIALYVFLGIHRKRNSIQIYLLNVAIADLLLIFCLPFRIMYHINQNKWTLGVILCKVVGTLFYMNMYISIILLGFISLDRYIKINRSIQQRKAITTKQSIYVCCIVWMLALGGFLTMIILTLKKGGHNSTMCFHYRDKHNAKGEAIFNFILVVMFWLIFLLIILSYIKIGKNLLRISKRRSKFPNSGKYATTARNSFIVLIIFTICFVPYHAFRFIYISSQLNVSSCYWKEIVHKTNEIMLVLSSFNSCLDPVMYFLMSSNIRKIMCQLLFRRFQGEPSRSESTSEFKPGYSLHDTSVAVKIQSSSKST

As for lysophosphatidylserine [lysoPS], the “cAMP production inhibitory activity” value in assay [1] is “marked activities”. Besides, in assay [2], the “phosphorylation of ERK1/2 30 minutes after the stimulation” value is recorded as “the phosphorylation was noted” and the “time of maximum response of ERK1/2 phosphorylation after the stimulation” value was “about 5 minutes”.
